Data: patent publication EP0820772A1, “IMMUNOMODULATING MEDICINAL AGENT” (Travkin, Oleg Viktorovich, priority 1995, dated 1996)

Assays:
Lympho-sarcoma = test: Antitumorous effectiveness, lympho-sarcoma tumour mass; conditions: intraperitoneally; proposed drug 30mg./kg. and prototype 300 mg./kg. on days 1, 2, 3 after transplantation; Adriamycin 600 μg./kg. on days 1 and 3; control 1124
Erlich’s carcinoma = test: Antitumorous effectiveness, Erlich's carcinoma tumour mass; conditions: intraperitoneally; proposed drug 300 mg./kg. and prototype 300 mg./kg. on days 1 and 3 after transplantation; Adriamycin 600 μg on day 1; control 540
[1] = tested on: Herpes simplex - 1 (MS strain); test: Herpetic encephalitis, mortality; type: in vivo; conditions: 100 LD 50; 7 days after infection; intraperitoneally; AraA 20 mg./kg. every day; prototype 400 mg./kg. and proposed drug 25 mg./kg. 4 h before and 24 h after infection; control 100%
Semlika forest virus = Semlika forest virus infection, mortality; type: in vivo; conditions: 30 LD 50; 12 days after infection; intraperitoneally; Remantadin 20 mg./kg 4 h and 24 h after infection; proposed drug 10 mg./kg 4 h before and 24 h after infection; control 80%
[2] = tested on: Venezuelan equine encephalitis virus (SPF strain); type: in vivo; conditions: intraperitoneally, Poly (G) 0.1 g./kg. and prototype 200 mg./kg. at infection and 24 h after, proposed drug 20 mg./kg 4 h before and 24 h after infection
[3] = in vivo
leukosis L 1210 = test: Treatment of developing leukosis L 1210; conditions: orally on days 1, 2, 3 after transplantation; proposed drug 30 mg./kg., prototype 400 mg./kg.; control 96
[4] = tested on: Herpes simplex-2 (Ela 5699 strain); test: Rabbit keratitis, severity of clinical symptoms; conditions: daily instillation: megosin 3% ointment, prototype 5% ointment, proposed drug 2.1% suspension; for Index of severity of clinical symptoms on day 5 following infection: control 14; for Index of severity of clinical symptoms on day 7 following infection: control 17; for Index of severity of clinical symptoms on day 9 following infection: control 13; for Index of severity of clinical symptoms on day 14 following infection: control 2

Row | Compound | Indices of efficacy (Mean tumour mass (mg.)) (Lympho-sarcoma) | Indices of efficacy (Mean tumour mass (mg.)) (Erlich’s carcinoma) | Indices of efficacy, % mortality [1] | Indices of efficacy, % mortality (Semlika forest virus) | Degree of suppression of viral reproduction in the brain 48 hours after infection, expressed as a percentage relative to the control [2] | toxicity (therapeutic index) [3] | Percentage of blastular cells in peripheral blood (leukosis L 1210) | Index of severity of clinical symptoms on day 5 following infection [4] | Index of severity of clinical symptoms on day 7 following infection [4] | Index of severity of clinical symptoms on day 9 following infection [4] | Index of severity of clinical symptoms on day 14 following infection [4]
1 | COc1cccc2c1C(=O)c1c(O)c3c(c(O)c1C2=O)C[C@@](O)(C(=O)CO)C[C@@H]3O[C@H]1C[C@H](N)[C@H](O)[C@H](C)O1 [Adriamycin] | 622 mg | 100 mg | – | – | – | – | – | – | – | – | –
2 | Nc1ncnc2c1ncn2[C@@H]1O[C@H](CO)[C@@H](O)[C@@H]1O [AraA, adenin - arabinosid] | – | – | 42%, 7 days after infection | – | – | – | – | – | – | – | –
3 | CC(N)C12CC3CC(CC(C3)C1)C2 (stereo not drawn) [Remantadin] | – | – | – | 20%, 12 days after infection | – | – | – | – | – | – | –
4 | CN(C)CCOc1ccc2cc3cc([N+](=O)[O-])c(OCCN(C)C)c(Cl)c3nc2c1Cl [The prototype, 3.6 - bis(2-dimethylaminetoxy)-4.5-dichlorine-2-nitroacridine] | 820 mg | 200 mg | 22% | – | 74% | 10-15 | 40% | 10 | 14 | 8 | 1
5 | ether of 10 - methylencarboxylat-9-acridone [The proposed drug] | 534 mg | 74 mg | 5% | 0% | 98% | – | 18% | 5 | 3 | 1 | 0
